Assays:
[1] = target: Sodium-dependent serotonin transporter (Homo sapiens, UniProt P31645)
[2] = target: Sodium-dependent dopamine transporter (Homo sapiens, UniProt Q01959)
Sodium-dependent dopamine transporter, sequence (Q01959 whole entry): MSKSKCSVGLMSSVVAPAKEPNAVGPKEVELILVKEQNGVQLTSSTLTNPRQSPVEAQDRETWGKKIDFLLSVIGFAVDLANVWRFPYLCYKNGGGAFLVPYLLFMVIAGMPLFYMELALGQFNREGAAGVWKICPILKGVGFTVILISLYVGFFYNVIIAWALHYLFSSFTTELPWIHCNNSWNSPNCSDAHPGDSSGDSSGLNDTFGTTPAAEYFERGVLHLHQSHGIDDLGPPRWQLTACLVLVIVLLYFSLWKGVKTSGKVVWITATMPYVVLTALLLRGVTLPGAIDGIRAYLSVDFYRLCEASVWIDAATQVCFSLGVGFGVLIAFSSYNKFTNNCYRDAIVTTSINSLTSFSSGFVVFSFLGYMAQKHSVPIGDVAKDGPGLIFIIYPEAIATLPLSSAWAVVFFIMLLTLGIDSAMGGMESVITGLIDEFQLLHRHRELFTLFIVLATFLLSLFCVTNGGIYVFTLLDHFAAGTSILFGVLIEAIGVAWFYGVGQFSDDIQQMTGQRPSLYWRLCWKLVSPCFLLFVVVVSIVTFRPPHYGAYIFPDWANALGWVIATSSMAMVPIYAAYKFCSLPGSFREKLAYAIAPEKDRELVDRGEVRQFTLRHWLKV

Sodium-dependent serotonin transporter, sequence (P31645 whole entry): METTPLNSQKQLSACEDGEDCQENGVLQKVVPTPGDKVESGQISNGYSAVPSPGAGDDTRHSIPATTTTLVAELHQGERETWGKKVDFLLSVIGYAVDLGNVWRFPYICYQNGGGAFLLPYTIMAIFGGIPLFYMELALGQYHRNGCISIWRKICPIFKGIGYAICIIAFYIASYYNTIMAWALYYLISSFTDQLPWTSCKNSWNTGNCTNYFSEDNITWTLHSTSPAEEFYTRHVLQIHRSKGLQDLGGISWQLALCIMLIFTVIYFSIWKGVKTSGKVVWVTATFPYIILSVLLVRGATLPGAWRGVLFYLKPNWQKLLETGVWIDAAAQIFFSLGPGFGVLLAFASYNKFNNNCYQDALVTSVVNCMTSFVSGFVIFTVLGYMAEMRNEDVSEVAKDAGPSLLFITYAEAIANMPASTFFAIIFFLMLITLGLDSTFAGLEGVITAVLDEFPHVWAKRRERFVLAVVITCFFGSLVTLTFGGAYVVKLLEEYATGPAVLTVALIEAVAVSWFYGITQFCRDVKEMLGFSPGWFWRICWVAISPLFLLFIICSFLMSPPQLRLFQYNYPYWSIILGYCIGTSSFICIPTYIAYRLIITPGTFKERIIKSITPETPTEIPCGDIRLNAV

| IC50 [1] [µM] | IC50 [2] [µM] | SMILES |
| --- | --- | --- |
| 0.28 | > 10 | C=CCN(CC)C(=O)C1(c2ccccc2)CC1CN (racemic) |
| 1.3 | > 10 | CCNCC1CC1(C(=O)N(CC)CC)c1ccccc1 (racemic) |
| 0.013 | 3.9 | NCC1CC1(C(=O)N1CCc2ccccc21)c1ccccc1 (racemic) |
| – | > 10 | NCC1CC1(C(=O)C1NCCc2ccccc21)c1ccccc1 (racemic) |
| 3.2 | > 10 | NCC1CC1(C(=O)NCc1ccccc1)c1ccccc1 (racemic) |
| > 10 | > 10 | CCNC(=O)[C@@]1(c2ccccc2)CC1CN (mixture of isomers) |
| > 10 | 4.5 | CCN(CC)C(=O)C1(c2ccccc2)CC1CN(C)C (racemic) [N,N-DIMETHYL MILNACIPRAN] |
| – | > 10 | NCC1C[C@@]1(C(=O)N1CCCC1)c1ccccc1 (mixture of isomers) |
| > 10 | > 10 | CCN(CC)C(=O)C1(c2ccccc2)CC1CNCC1CCCC1 (racemic) |
| 2 | > 10 | CCCCN(CC)C(=O)C1(c2ccccc2)CC1CN (racemic) |
| 1.2 | 4.6 | NCC1CC1(C(=O)N1CCCCC1)c1ccccc1 (racemic) |
| 0.16 | > 10 | CCN(Cc1ccccc1)C(=O)C1(c2ccccc2)CC1CN (racemic) |
| 5.4 | > 10 | CCN(CC)C(=O)[C@@]1(c2ccccc2)CC1CNC (mixture of isomers) |
| – | > 10 | NCC(=O)NCC1CC1(C(=O)C1NCCc2ccccc21)c1ccccc1 (racemic) |
| 1.6 | > 10 | CCN(CC)C(=O)C1(c2ccccc2)CC1CNCc1ncco1 (racemic) |
| 4.8 | > 10 | CCN(CC)C(=O)C1(c2ccccc2)CC1CNCc1cnco1 (racemic) |
| 0.077 | > 10 | NCC(=O)NCC1CC1(C(=O)N1CCc2ccccc21)c1ccccc1 (racemic) |

| IC50 [1] [µM] | IC50 [2] [µM] | SMILES |
| --- | --- | --- |
| 7.5 | > 10 | CCN(C(=O)C1(c2ccccc2)CC1CN)C1CCCCC1 (racemic) |
| 0.64 | > 10 | NCC1CC1(C(=O)N1CCCCCC1)c1ccccc1 (racemic) |
| 4.4 | > 10 | CCN(C(=O)C1(c2ccccc2)CC1CN)c1ccccc1 (racemic) |
| 1.3 | > 10 | CCN(CCOC)C(=O)C1(c2ccccc2)CC1CN (racemic) |
| 2.2 | > 10 | CCN(CC)C(=O)[C@@]1(c2ccccc2)C[C@H]1CNC(=O)CN (racemic) |
| 4.4 | > 10 | CCN(CC)C(=O)C1(c2ccccc2)CC1CNCc1ccc[nH]1 (racemic) |
| 0.83 | 2.4 | CCN(C)C(=O)C1(c2ccccc2)CC1CN (racemic) |
| > 10 | > 10 | CCN(C(=O)C1(c2ccccc2)CC1CN)C(C)(C)C (racemic) |
| 3.5 | 6.2 | CCN(CC)C(=O)C1(c2ccccc2)CC1CNCc1ccccn1 (racemic) |
| > 10 | > 10 | CC(C)N(C(=O)[C@@]1(c2ccccc2)CC1CN)C(C)C (mixture of isomers) |
| > 10 | > 10 | CCCCNCC1CC1(C(=O)N(CC)CC)c1ccccc1 (racemic) |
| 1.7 | > 10 | CCCN(CC)C(=O)C1(c2ccccc2)CC1CN (racemic) |
| 1.1 | > 10 | CCN(CC)C(=O)C1(c2ccccc2)CC1CNCC(OC)OC (racemic) |
| > 10 | > 10 | NCC1CC1(C(=O)Nc1ccccc1)c1ccccc1 (racemic) |
| > 10 | 4.6 | CC(C)N(C(=O)C1(c2ccccc2)CC1CNC(=O)CN)C(C)C (racemic) |
| 0.1 | > 10 | NCC1CC1(C(=O)N1CCCc2ccccc21)c1ccccc1 (racemic) |
| 1.7 | 7.4 | NCC1CC1(C(=O)N1CCOCC1)c1ccccc1 (racemic) |

| SMILES | IC50 [1] [µM] | IC50 [2] [µM] |
| --- | --- | --- |
| NCC1CC1(C(=O)NC1CC1)c1ccccc1 (racemic) | > 10 | > 10 |
| CCN(CC)C(=O)C1(c2ccccc2)CC1CNCC(C)C (racemic) | > 10 | > 10 |
| CCN(CC)C(=O)C1(c2ccccc2)CC1CNCc1ccncc1 (racemic) | > 10 | > 10 |
| CCN(CC)C(=O)C1(c2ccccc2)CC1CNCc1cccnc1 (racemic) | > 10 | > 10 |
| CCN(CC)C(=O)C1(c2ccccc2)CC1CNCc1ccco1 (racemic) | > 10 | > 10 |

Source: ChEMBL document CHEMBL1143218 (Bioorg Med Chem Lett, 2008)
